Assay results as given in US20060069132A1, “Azolecarboxamide herbicides” (priority 2004, published 2006).

Tests used:
Test in all cases: Test J Compounds 2 and 6 alone and in combination with other herbicides, foliage spray
Details in all cases: applied alone
[1] = test system: wheat (TRZAS); type: in vivo, Triticum aestivum; parameters: key: 0 = no effect, 100 = complete control
Description: (§1) Colby's Equation was used to calculate the expected additive herbicidal effect of the mixtures of Compound 6 with Harmony® Extra (i.e. a 2:1 mixture by weight of thifensulfuron-methyl and tribenuron-methyl). Colby's Equation (Colby, S. R. “Calculating Synergistic and Antagonistic Responses of Herbicide Combinations,” Weeds, 15(1), pp 20-22 (1967)) calculates the expected additive effect of herbicidal mixtures, and for two active ingredients is of the form: Pa+b=Pa+Pb−(PaPb/100) wherein • Pa+b is the percentage effect of the mixture expected from additive contribution of the individual components, • Pa is the observed percentage effect of the first active ingredient at the same use rate as in the mixture, and • Pb is the observed percentage effect of the second active ingredient at the same use rate as in the mixture.
(§2) Seeds of test plants consisting of barnyardgrass (ECHCG; Echinochloa crus-galli (L.) Beauv.), blackgrass (ALOMY; Alopecurus myosuroides Huds.), Surinam grass (BRADC; Urochloa decumbens (Staph) R. D. Webster, previously named Brachiaria decumbens Stapf), cocklebur (XANST, Xanthium strumarium L.), corn (ZEAMD, Zea mays L. cv. ‘Pioneer 33G26’), large crabgrass (DIGSA, Digitaria sanguinalis (L.) Scop.), giant foxtail (SETFA, Setaria faberi Herrm.), lambsquarters (CHEAL, Chenopodium album L.), morningglory (IPOCO, Ipomoea coccinea L.), pigweed (AMARE, Amaranthus retroflexus L.), velvetleaf (ABUTH, Abutilon theophrasti Medik.) wheat (TRZAS, Triticum aestivum L. cv. ‘Recital’) and wild oat (AVEFA, Avena fatua L.) were planted in Redi-Earth® planting medium (Scotts Company, 14111 Scottslawn Road, Marysville, Ohio 43041) comprising spaghnum peat moss and vermiculite. Seeds of small-seeded species were planted about 1 cm deep; larger seeds were planted about 2.5 cm deep. Plants were grown in a greenhouse using supplemental lighting to maintain a photoperiod of about 14 hours; daytime and nighttime temperatures were about 24-30° C. and 22-25° C., respectively. Balanced fertilizer was applied through the watering system. The plants were grown for 7 to 11 days so that at time of treatment the plants ranged in height from 2 to 18 cm (1- to 4-leaf stage). Treatments consisted of Compounds 2 and 6 (technical material), atrazine (90DF), terbacil (Sinbar® 80DF), hexazinone (Velpar® 75WG), diuron (Karmex® 80WP) and paraquat (Gramoxone® Extra, 37%) alone and in combination, suspended or dissolved in an aqueous solvent comprising a nonionic surfactant and applied as a foliage spray using a volume of 541 L/ha. Each treatment was triply replicated. […] Treated plants and controls were maintained in the greenhouse and watered as needed with care to not wet the foliage for the first 24 hours after treatment. The effects on the plants 15 days after treatment were visually compared to untreated controls. Plant response ratings, listed in Table J as the means of the thee replicates, are based on a scale of 0 to 100 where 0 is no effect and 100 is complete control. Also listed in Table J are the expected effects for the mixtures calculated using Colby's Equation.

[2] = test system: morningglory (IPOCO); type: in vivo, Ipomoea coccinea; parameters: key: 0 = no effect, 100 = complete control
Description: as §2

[3] = test system: giant foxtail (SETFA); type: in vivo, Setaria faberi; parameters: key: 0 = no effect, 100 = complete control
Description: as §2

[4] = test system: large crabgrass (DIGSA); type: in vivo, Digitaria sanguinalis; parameters: key to DIGSA Obsd.: 0 = no effect, 100 = complete control
Description: as §1, §2

[5] = test system: cocklebur (XANST); type: in vivo, Xanthium strumarium; parameters: key: 0 = no effect, 100 = complete control
Description: as §2

[6] = test system: corn (ZEAMD); type: in vivo, Zea mays; parameters: key: percentage herbicidal effect (observed)
Description: as §1, §2

[7] = test system: velvetleaf (ABUTH); type: in vivo, Abutilon theophrasti; parameters: key: 0 = no effect, 100 = complete control
Description: as §1, §2

[8] = test system: barnyardgrass (ECHCG); type: in vivo, Echinochloa crus-galli; parameters: key: percentage herbicidal effect (observed)
Description: as §1, §2

[9] = test system: wild oat (AVEFA); type: in vivo, Avena fatua; parameters: key: 0 = no effect, 100 = complete control
Description: as §1, §2

[10] = test system: lambsquarters (CHEAL); type: in vivo, Chenopodium album; parameters: key: % herbicidal effect (observed)
Description: as §1, §2

[11] = test system: blackgrass (ALOMY); type: in vivo, Alopecurus myosuroides; parameters: key: 0 = no effect, 100 = complete control
Description: as §1, §2

[12] = test system: Surinam grass (BRADC); type: in vivo, Urochloa decumbens; parameters: key: 0 = no effect, 100 = complete control
Description: as §1, §2

[13] = test system: pigweed (AMARE); type: in vivo, Amaranthus retroflexus; parameters: key: 0 = no effect, 100 = complete control
Description: as §1, §2

CCNc1nc(Cl)nc(NC(C)C)n1 [atrazine]
TRZAS Obsd. ([1]; 125 g a.i./ha): 3
TRZAS Obsd. ([1]; 250 g a.i./ha): 8
IPOCO Obsd. ([2]; 125 g a.i./ha): 52
IPOCO Obsd. ([2]; 250 g a.i./ha): 75
SETFA Obsd. ([3]; 125 g a.i./ha): 0
SETFA Obsd. ([3]; 250 g a.i./ha): 18
DIGSA Obsd. ([4]; 125 g a.i./ha): 5
DIGSA Obsd. ([4]; 250 g a.i./ha): 5
XANST Obsd. ([5]; 125 g a.i./ha): 45
XANST Obsd. ([5]; 250 g a.i./ha): 72
ZEAMD Obsd. ([6]; 125 g a.i./ha): 3
ZEAMD Obsd. ([6]; 250 g a.i./ha): 12
ABUTH Obsd. ([7]; 125 g a.i./ha): 15
ABUTH Obsd. ([7]; 250 g a.i./ha): 25
ECHCG Obsd. ([8]; 125 g a.i./ha): 20
ECHCG Obsd. ([8]; 250 g a.i./ha): 23
AVEFA Obsd. ([9]; 125 g a.i./ha): 13
AVEFA Obsd. ([9]; 250 g a.i./ha): 28
CHEAL Obsd. ([10]; 125 g a.i./ha): 67
CHEAL Obsd. ([10]; 250 g a.i./ha): 95
ALOMY Obsd. ([11]; 125 g a.i./ha): 3
ALOMY Obsd. ([11]; 250 g a.i./ha): 28
BRADC Obsd. ([12]; 125 g a.i./ha): 15
BRADC Obsd. ([12]; 250 g a.i./ha): 5
AMARE Obsd. ([13]; 125 g a.i./ha): 38
AMARE Obsd. ([13]; 250 g a.i./ha): 75

C[n+]1ccc(-c2cc[n+](C)cc2)cc1 [paraquat]
TRZAS Obsd. ([1]; 31 g a.i./ha): 35
TRZAS Obsd. ([1]; 62 g a.i./ha): 83
IPOCO Obsd. ([2]; 31 g a.i./ha): 58
IPOCO Obsd. ([2]; 62 g a.i./ha): 90
SETFA Obsd. ([3]; 31 g a.i./ha): 72
SETFA Obsd. ([3]; 62 g a.i./ha): 88
DIGSA Obsd. ([4]; 31 g a.i./ha): 78
DIGSA Obsd. ([4]; 62 g a.i./ha): 85
XANST Obsd. ([5]; 31 g a.i./ha): 100
XANST Obsd. ([5]; 62 g a.i./ha): 87
ZEAMD Obsd. ([6]; 31 g a.i./ha): 43
ZEAMD Obsd. ([6]; 62 g a.i./ha): 63
ABUTH Obsd. ([7]; 31 g a.i./ha): 70
ABUTH Obsd. ([7]; 62 g a.i./ha): 92
ECHCG Obsd. ([8]; 31 g a.i./ha): 45
ECHCG Obsd. ([8]; 62 g a.i./ha): 77
AVEFA Obsd. ([9]; 31 g a.i./ha): 42
AVEFA Obsd. ([9]; 62 g a.i./ha): 63
CHEAL Obsd. ([10]; 31 g a.i./ha): 95
CHEAL Obsd. ([10]; 62 g a.i./ha): 100
ALOMY Obsd. ([11]; 31 g a.i./ha): 60
ALOMY Obsd. ([11]; 62 g a.i./ha): 73
BRADC Obsd. ([12]; 31 g a.i./ha): 67
BRADC Obsd. ([12]; 62 g a.i./ha): 95
AMARE Obsd. ([13]; 31 g a.i./ha): 90
AMARE Obsd. ([13]; 62 g a.i./ha): 100

CN(C)C(=O)Nc1ccc(Cl)c(Cl)c1 [diuron]
TRZAS Obsd. ([1]; 250 g a.i./ha): 30
TRZAS Obsd. ([1]; 500 g a.i./ha): 40
IPOCO Obsd. ([2]; 250 g a.i./ha): 92
IPOCO Obsd. ([2]; 500 g a.i./ha): 100
SETFA Obsd. ([3]; 250 g a.i./ha): 35
SETFA Obsd. ([3]; 500 g a.i./ha): 67
DIGSA Obsd. ([4]; 250 g a.i./ha): 68
DIGSA Obsd. ([4]; 500 g a.i./ha): 63
XANST Obsd. ([5]; 250 g a.i./ha): 93
XANST Obsd. ([5]; 500 g a.i./ha): 100
ZEAMD Obsd. ([6]; 250 g a.i./ha): 20
ZEAMD Obsd. ([6]; 500 g a.i./ha): 28
ABUTH Obsd. ([7]; 250 g a.i./ha): 77
ABUTH Obsd. ([7]; 500 g a.i./ha): 100
ECHCG Obsd. ([8]; 250 g a.i./ha): 62
ECHCG Obsd. ([8]; 500 g a.i./ha): 98
AVEFA Obsd. ([9]; 250 g a.i./ha): 15
AVEFA Obsd. ([9]; 500 g a.i./ha): 47
CHEAL Obsd. ([10]; 250 g a.i./ha): 98
CHEAL Obsd. ([10]; 500 g a.i./ha): 100
ALOMY Obsd. ([11]; 250 g a.i./ha): 25
ALOMY Obsd. ([11]; 500 g a.i./ha): 43
BRADC Obsd. ([12]; 250 g a.i./ha): 68
BRADC Obsd. ([12]; 500 g a.i./ha): 85
AMARE Obsd. ([13]; 250 g a.i./ha): 95
AMARE Obsd. ([13]; 500 g a.i./ha): 100

CN(C)c1nc(=O)n(C2CCCCC2)c(=O)n1C [hexazinone]
TRZAS Obsd. ([1]; 100 g a.i./ha): 35
TRZAS Obsd. ([1]; 200 g a.i./ha): 60
IPOCO Obsd. ([2]; 100 g a.i./ha): 92
IPOCO Obsd. ([2]; 200 g a.i./ha): 100
SETFA Obsd. ([3]; 100 g a.i./ha): 28
SETFA Obsd. ([3]; 200 g a.i./ha): 45
DIGSA Obsd. ([4]; 100 g a.i./ha): 38
DIGSA Obsd. ([4]; 200 g a.i./ha): 53
XANST Obsd. ([5]; 100 g a.i./ha): 100
XANST Obsd. ([5]; 200 g a.i./ha): 100
ZEAMD Obsd. ([6]; 100 g a.i./ha): 45
ZEAMD Obsd. ([6]; 200 g a.i./ha): 53
ABUTH Obsd. ([7]; 100 g a.i./ha): 82
ABUTH Obsd. ([7]; 200 g a.i./ha): 77
ECHCG Obsd. ([8]; 100 g a.i./ha): 15
ECHCG Obsd. ([8]; 200 g a.i./ha): 53
AVEFA Obsd. ([9]; 100 g a.i./ha): 53
AVEFA Obsd. ([9]; 200 g a.i./ha): 62
CHEAL Obsd. ([10]; 100 g a.i./ha): 78
CHEAL Obsd. ([10]; 200 g a.i./ha): 87
ALOMY Obsd. ([11]; 100 g a.i./ha): 40
ALOMY Obsd. ([11]; 200 g a.i./ha): 78
BRADC Obsd. ([12]; 100 g a.i./ha): 62
BRADC Obsd. ([12]; 200 g a.i./ha): 70
AMARE Obsd. ([13]; 100 g a.i./ha): 88
AMARE Obsd. ([13]; 200 g a.i./ha): 80

Cc1[nH]c(=O)n(C(C)(C)C)c(=O)c1Cl [terbacil]
TRZAS Obsd. ([1]; 250 g a.i./ha): 55
TRZAS Obsd. ([1]; 500 g a.i./ha): 90
IPOCO Obsd. ([2]; 250 g a.i./ha): 78
IPOCO Obsd. ([2]; 500 g a.i./ha): 100
SETFA Obsd. ([3]; 250 g a.i./ha): 18
SETFA Obsd. ([3]; 500 g a.i./ha): 55
DIGSA Obsd. ([4]; 250 g a.i./ha): 45
DIGSA Obsd. ([4]; 500 g a.i./ha): 48
XANST Obsd. ([5]; 250 g a.i./ha): 68
XANST Obsd. ([5]; 500 g a.i./ha): 97
ZEAMD Obsd. ([6]; 250 g a.i./ha): 30
ZEAMD Obsd. ([6]; 500 g a.i./ha): 75
ABUTH Obsd. ([7]; 250 g a.i./ha): 92
ABUTH Obsd. ([7]; 500 g a.i./ha): 100
ECHCG Obsd. ([8]; 250 g a.i./ha): 15
ECHCG Obsd. ([8]; 500 g a.i./ha): 63
AVEFA Obsd. ([9]; 250 g a.i./ha): 68
AVEFA Obsd. ([9]; 500 g a.i./ha): 97
CHEAL Obsd. ([10]; 250 g a.i./ha): 93
CHEAL Obsd. ([10]; 500 g a.i./ha): 100
ALOMY Obsd. ([11]; 250 g a.i./ha): 62
ALOMY Obsd. ([11]; 500 g a.i./ha): 97
BRADC Obsd. ([12]; 250 g a.i./ha): 75
BRADC Obsd. ([12]; 500 g a.i./ha): 73
AMARE Obsd. ([13]; 250 g a.i./ha): 63
AMARE Obsd. ([13]; 500 g a.i./ha): 97
